# Measured values: ChEMBL document CHEMBL3886883, “Cyclic amines” (2016)
# pIC50: −log10 of the molar value.
# Target: T1, P2X purinoceptor 7 (Homo sapiens, UniProt Q99572)
# T1 sequence (Q99572 whole entry): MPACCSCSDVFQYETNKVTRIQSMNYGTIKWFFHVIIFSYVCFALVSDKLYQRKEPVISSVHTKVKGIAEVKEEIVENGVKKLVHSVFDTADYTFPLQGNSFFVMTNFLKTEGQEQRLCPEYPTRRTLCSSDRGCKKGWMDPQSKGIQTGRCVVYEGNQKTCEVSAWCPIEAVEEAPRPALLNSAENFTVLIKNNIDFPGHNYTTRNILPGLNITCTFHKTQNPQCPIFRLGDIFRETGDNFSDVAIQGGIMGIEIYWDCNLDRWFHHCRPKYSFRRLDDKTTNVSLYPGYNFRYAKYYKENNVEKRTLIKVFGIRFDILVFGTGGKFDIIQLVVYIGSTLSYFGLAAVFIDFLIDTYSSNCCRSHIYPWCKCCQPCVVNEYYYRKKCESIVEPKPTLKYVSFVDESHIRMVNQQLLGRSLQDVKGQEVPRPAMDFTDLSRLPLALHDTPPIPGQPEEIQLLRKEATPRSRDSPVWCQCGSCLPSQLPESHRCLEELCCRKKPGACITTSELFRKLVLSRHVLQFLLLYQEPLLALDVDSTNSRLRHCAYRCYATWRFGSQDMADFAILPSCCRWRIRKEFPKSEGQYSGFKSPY
# Assay: Fluorescent Imaging Plate Reader (FLIPR) Assay: Briefly, 293-human or mouse P2X7 stable cells were incubated in sucrose buffer, pH 7.4 [KCl (5 mM), NaH2PO42H2O (9.6 mM), HEPES (25 mM), sucrose (280 mM), glucose (5 mM), CaCl2 (0.5 mM), and probenecid (0.1425 g in 3 mL 1N NaOH was added for 500 mL solution)] in 384-well plates. 93-rat P2X7 stable cells were incubated in HHPB (pH 7.4) [consisting of Hank's BSS (1X); HEPES (pH 7.4) (20 mM) (Sigma); probenecid (0.710 g/5 mL 1N NaOH) (Sigma); and BSA (0.05%) (Roche) which was added after the pH had been adjusted] in 384-well plates. Fluo-4 NW dye mix (Molecular Probes, Inc., Eugene, Oreg., USA) was prepared in buffer (see manufacturer's instructions). Cell plates were removed from the 37° C. incubator, the media discarded and then 30 μL of dye was added to each well. Plates were placed in the 37° C., non-CO2 incubator for 30 minutes and then room temperature for 30 minutes. Two sets of drug plates were prepared: A) Mixtures of compound plus agonist were prepared as follows, in order to determine close response: BzATP: 11 point ½ log, diluted in buffer, starting from 1 mM. Testing compounds: 11 point ½ log, diluted in 2% DMSO buffer starting from 10 μM. B) Agonist only mixture was prepared with BzATP at a single concentration in buffer (concentration determined by dose response). Compound mixtures (A) were added to assay plates containing cells and placed at room temperature for 30 minutes, then BzATP (B) was added. Fluorescence was read using the Tetra FLIPR® (Molecular Devices, Inc., Sunnyvale, Calif., USA) and IC50 values were calculated by standard methods to determine antagonist activity.
# Assay type: cell-based
structure (smiles),measurement,value
COc1ccc(C(CNC(=O)c2cc(C)ccc2Cl)N2CCCCC2)cc1 (stereo not drawn),pIC50,6.19
Cc1ccc(Cl)c(C(=O)NCC(c2ccc(F)cc2)N2CCOCC2)c1 (stereo not drawn),pIC50,7.68
COc1ccc(C(CNC(=O)c2cc(C)ccc2Cl)N2CCOCC2)cc1 (stereo not drawn),pIC50,7.23
